Structures can show the parent of a compound that is named as a salt. Where two headings read alike, the source gives them in different places.
What was measured:
Format in all cases: cell-based, human
[1] = tested on: PBMCs from AML patients; assay: Primary screening of FDA approved drug library, TitreGlo/CellTiter-Glo cell viability, PBMCs from AML patients; conditions: for inhibition at 10 µM: Homo sapiens, PBMC, read-out: % Inhibition, AML Average
Description: (§1) Whole blood was taken from experimental group patients and control group patients. The collected blood was transferred to EDTA tubes with a 5 mL pipette and a pipette aid and then to each EDTA tubes corresponding 50 ml centrifuge tubes. All the blood from one patient was placed into 1 tube (50 mL) and an equal volume of PBS was added to the 50 mL centrifuge tube. The sample was then mixed by either inverting the tube or pipetting up & down. The blood was transferred into tow 50 mL leucosep tube and centrifuged at room temperature (18-20° C.) for 15 minutes at 800×g with the brake turned off and acceleration at 2/deceleration at zero. After centrifugation, the white cell interface (buffy coat) was removed by pasture pipette and transferred to the new appropriately labelled 50 ml centrifuge tube. 25 mL PBS was added to the white cell interface (buffy coat) and the mix was centrifuged for 10 minutes at room temperature at 400×g with the brake off and acceleration at 4 & deceleration at 2. The supernatant was discarded from the pellet carefully in an appropriate manner. The pellet was washed another time with 20 mL by centrifugation for 5 minutes as above. The pellet was re-suspended in 5 mL and cells were counted using V-Cell. The cells were then either used directly as fresh for screening or frozen in liquid nitrogen in 10% DMSO/RPMPI media until use.
(§2) The assay used for TitreGlo (Promega) to measure cell viability based on the ATP production. […] The assay was developed in a 384-well plate with 2500 cell/well in 50 uL total volume. Alternatively, the assay could be developed in a 96-well plate with 10,000 cells/well. […] Z′ as a statistics factor was calculated as follows:
(§3) Each compound from the ENZO FDA SCREEN-WELL® FDA approved drug library V2 (0.10 μl in 100% DMSO) was transferred to white, 384-well, PS, Cellstar plates (Greiner Bio-One) using the Echo® Liquid Handler (Labcyte Inc.). Each plate contained one column for the High/Low Controls. The Low Control (1% DMSO v/v in column 23, no cells) and the High Control (final 1% DMSO v/v in column 24, with cells) were employed to calculate the Z′ for each assay plate. […] At 24 h post seeding, baseline growth was assessed using a control plate and CellTiter-Glo (CTG) reagent (Promega Corporation). Briefly, 20 μL/well of CTG detection mix was added and plates were read using an EnVision Multimode plate reader (PerkinElmer) after 10 min incubation in the dark. The raw luminescence signal was normalized in ActivityBase XE with outliers in control wells eliminated according to the 3-sigma method to yield percentage of cell viability by using the High Control (HC) containing cells in 1% DMSO v/v (Carl Roth) and the Low Control containing 1% DMSO v/v (Carl Roth). All Medium-Throughput Screening experiments were performed in duplicate for each patient. […] The raw luminescence signal was processed using Graph Pad Prism (Graph Pad Software Inc.) with outliers in control wells eliminated according to the 3-sigma method. The dose-response curves were analyzed using a 4 parameter sigmoidal fit to obtain plausible results in the case non-sigmoidal dose-response curves.
(§4) The Screen-Well FDA approved drug library was screened, which contains 780 approved drugs. […] The final DMSO concentration in the assay plate was 0.1% of total volume. […] The average of all four control samples was then calculated and used to determine the positive “hits” in patients' samples.
(§5) Each average patient samples were plotted against average of the control samples to identify the positive hits.

[2] = tested on: PBMCs from CLL patients; assay: Primary screening of FDA approved drug library, TitreGlo/CellTiter-Glo cell viability, PBMCs from CLL patients; conditions: for inhibition at 10 µM: Homo sapiens, PBMC, read-out: % Inhibition, CLL Average
Description: as §1, §2, §3, §4, §5

[3] = tested on: PBMCs from CML patients; assay: Primary screening of FDA approved drug library, TitreGlo/CellTiter-Glo cell viability, PBMCs from CML patients; conditions: for inhibition at 10 µM: Homo sapiens, PBMC, read-out: % Inhibition, CML Average
Description: as §1, §2, §3, §5
Samples from 4 patients were screened against the FDA approved drug library where the Negative Control (High control) contained cells treated with DMSO and the Positive Control (Low control) were based using no cells. The screening was carried out in 96 well plates. The raw luminescence counts were normalized and the % Inhibition was calculated relative to the high control (0% Inhibition) and the low control (100% Inhibition).

[4] = tested on: PBMCs from ALL patients; assay: Primary screening of FDA approved drug library, TitreGlo/CellTiter-Glo cell viability, PBMCs from ALL patients; conditions: for inhibition at 10 µM: Homo sapiens, PBMC, read-out: % Inhibition, ALL Average
Description: as §1, §2, §3, §4, §5

[5] = compound 10 uM, PBMCs from AML patients, average over patients, relative to high control (0%) and no-cell low control (100%)
[6] = compound 10 uM, PBMCs from CLL patients, average over patients, relative to high control (0%) and no-cell low control (100%)
[7] = compound 10 uM, PBMCs from CML patients, average over patients, relative to high control (0%) and no-cell low control (100%)
[8] = compound 10 uM, PBMCs from ALL patients, average over patients, relative to high control (0%) and no-cell low control (100%)

SMILES | inhibition at 10 µM [1, 5] | inhibition at 10 µM [2, 6] | inhibition at 10 µM [3, 7] | inhibition at 10 µM [4, 8] | also measured
CNC[C@H](O)c1ccc(O)c(O)c1.O=C(O)C(O)C(O)C(=O)O [L-(−)-Epinephrine-(+)-Bitartrate] | – | – | – | – | % Inhibition, AML Average [1, 5]: −2.8%; % Inhibition, CLL Average [2, 6]: 45.4%; % Inhibition, CML Average [3, 7]: 68.4%; % Inhibition, ALL Average [4, 8]: 80.5%
Nc1ccn([C@@H]2O[C@H](CO)[C@@H](O)[C@@H]2O)c(=O)n1 [Cytarabine] | 66.1% | 26.6% | 58.8% | 49.2% | –
CCN(CC)CCNC(=O)c1c(C)[nH]c(/C=C2\C(=O)Nc3ccc(F)cc32)c1C [Sunitinib Malate] | 56.5% | 40.5% | 65.2% | 54.2% | –
COc1cccc2c1C(=O)c1c(O)c3c(c(O)c1C2=O)C[C@@](O)(C(=O)CO)C[C@@H]3O[C@H]1C[C@H](N)[C@@H](O)[C@H](C)O1 [Epirubicin HCl] | 67.1% | 64.3% | 5% | 74.4% | –
CC(C)(C)NC[C@H](O)COc1cccc2c1CCCC2=O [Levobunolol HCl] | 1.8% | 49.6% | -32.1% | -8% | –
NS(=O)(=O)c1cc(C(=O)O)c(NCc2ccco2)cc1Cl [Furosemide] | -39% | 50.3% | -38.4% | -31.3% | –
C[C@H]1O[C@@H](O[C@H]2[C@@H](O)C[C@H](O[C@H]3[C@@H](O)C[C@H](O[C@H]4CC[C@@]5(C)[C@H](CC[C@@H]6[C@@H]5C[C@@H](O)[C@]5(C)[C@@H](C7=CC(=O)OC7)CC[C@]65O)C4)O[C@@H]3C)O[C@@H]2C)C[C@H](O)[C@@H]1O [Digoxin] | -33.2% | 30.1% | 76.8% | 32% | –
O=c1[nH]c2ccccc2n1C1CCN(CCCC(c2ccc(F)cc2)c2ccc(F)cc2)CC1 [Pimozide] | 42.3% | 39.5% | 69% | 58.8% | –
CN1CCc2cccc3c2[C@H]1Cc1ccc(O)c(O)c1-3 [Apomorphine HCl Hemihydrate] | 39.5% | 27.9% | 89.4% | 37.3% | –
CSc1ccc2c(c1)N(CCC1CCCCN1C)c1ccccc1S2 (centres unmarked) [Thioridazine HCl] | 27% | -40.9% | 70.3% | 23.1% | –
Nc1nc(Cl)nc2c1ncn2[C@@H]1O[C@H](CO)[C@@H](O)[C@@H]1F [Clofarabine] | -20.6% | 41.3% | 21.9% | 68.1% | –
N[C@@H](Cc1ccc(N(CCCl)CCCl)cc1)C(=O)O [Melphalan] | 42.1% | 69.6% | 32.5% | 92.9% | –
CCN(CC)C(=S)SSC(=S)N(CC)CC [Disulfiram] | 64% | -45.4% | 92.4% | 91.5% | –
CN(C)C(=O)C(CCN1CCC(O)(c2ccc(Cl)cc2)CC1)(c1ccccc1)c1ccccc1 [Loperamide HCl] | 18.5% | 16.3% | 69.3% | 54.9% | –
CO[C@H]1C[C@@H]2CC[C@@H](C)[C@@](O)(O2)C(=O)C(=O)N2CCCC[C@H]2C(=O)O[C@H]([C@H](C)C[C@@H]2CC[C@@H](OC(=O)C(C)(CO)CO)[C@H](OC)C2)CC(=O)[C@H](C)/C=C(\C)[C@@H](O)[C@@H](OC)C(=O)[C@H](C)C[C@H](C)/C=C/C=C/C=C/1C [Temsirolimus] | 1.6% | 26.6% | 7% | -6.4% | –
CC(CCc1ccc(O)cc1)NCCc1ccc(O)c(O)c1 (centres unmarked) [Dobutamine HCl] | -10.5% | -5% | 25.3% | 79.6% | –
Oc1c(Cl)cc(Cl)c(Cl)c1Cc1c(O)c(Cl)cc(Cl)c1Cl [Hexachlorophene] | – | – | – | – | inhibition at 10 µM [1]: 35%; inhibition at 10 µM [2]: -13.5%; inhibition at 10 µM [3]: 26.3%; inhibition at 10 µM [4]: 23%

— patent publication US10639382B2, “Method for treating leukemia” (National Guard Health Affairs, priority 2017, dated 2020)
